Counter-ions that a name gives are not always drawn.

One assay concerns the target human H3 receptor (Homo sapiens (Human), UniProt Q9Y5N1). Nature of the assay: Functional assay II, [35S]GTPγS assay. It is filed as biochemical. To be noted: membranes from CHO cells stably expressing the human H3 receptor. As to the method: The ability of the compounds to bind and interact with the human H3 receptor as agonists, inverse agonists and/or antagonists, is determined by a functional assay, named [^35S]GTPγS assay. The assay measures the activation of G proteins by catalyzing the exchange of guanosine 5′-diphosphate (GDP) by guanosine 5′-triphosphate (GTP) at the -subunit. The GTP-bounded G proteins dissociate into two subunits, GGTP and Gβγ, which in turn regulate intracellular enzymes and ion channels. GTP is rapidly hydrolysed by the G-sub-unit (GTPases) and the G protein is deactivated and ready for a new GTP exchange cycle. […] GTPγS, a non-hydrolysed analogue of GTP, is determined. This process can be monitored in vitro by incubating cell membranes containing the G protein coupled receptor H3 with GDP and [^35S] […] This procedure is repeated twice except for the last homogenization step, the protein concentration is determined, and membranes are diluted to a protein concentration of 2 mg/ml, aliquoted and kept at −80° C. until use.
In order to study the presence and the potency of an inverse agonist/antagonist, the H3-receptor agonist ligand R-α-methyl histamine (RAMHA) is added. The ability of the test compound to counteract the effect of RAMHA is measured. […] The plates are centrifuged at 1500 rpm for 10 min and the radioactivity is measured using a Top-counter. […]
Background: Binding of GTPγS marks nucleotide exchange on a G protein.

The test system of assay [1] is Sprague-Dawley (SD) male rats. The assay is described as follows: Open cage schedule-fed rat model. To be noted: dose 15 mg/kg p.o. It is filed as in vivo. As to the method: The ability of the present compounds to reduce weight is determined using the in vivo open cage Schedule-fed rat model.
Sprague-Dawley (SD) male rats of an age of about 1½ to 2 months and a weight of about 200-250 g are purchased from Møllegård Breeding and Research Centre A/S (Denmark). On arrival they are allowed some days of acclimatisation before being placed in individual open plastic cages. They are habituated to the presence of food (Altromin pelleted rat chow) in their home cage for only 7 hours each day (from 07.30 to 14.30, seven days a week). Water is present ad libitum. Once the consumption of food has stabilised after 7 to 9 days, the animals are ready for use.
Each animal is used only once to avoid carry-over effects between treatments. During the test sessions, the test compound is administered intraperitoneally or orally 30 min before the start of the sessions. One group of animals is administered the test compound at different doses, and a control group of animals receives vehicle. Food and water intake are monitored at 1, 2 and 3 hours post administration.
Any side effects (manifested as barrel-rolling, bushy fur etc.) may rapidly be detected, since the animals are kept in transparent plastic cages to enable continuous monitoring.

Chain of human H3 receptor (Q9Y5N1 whole entry): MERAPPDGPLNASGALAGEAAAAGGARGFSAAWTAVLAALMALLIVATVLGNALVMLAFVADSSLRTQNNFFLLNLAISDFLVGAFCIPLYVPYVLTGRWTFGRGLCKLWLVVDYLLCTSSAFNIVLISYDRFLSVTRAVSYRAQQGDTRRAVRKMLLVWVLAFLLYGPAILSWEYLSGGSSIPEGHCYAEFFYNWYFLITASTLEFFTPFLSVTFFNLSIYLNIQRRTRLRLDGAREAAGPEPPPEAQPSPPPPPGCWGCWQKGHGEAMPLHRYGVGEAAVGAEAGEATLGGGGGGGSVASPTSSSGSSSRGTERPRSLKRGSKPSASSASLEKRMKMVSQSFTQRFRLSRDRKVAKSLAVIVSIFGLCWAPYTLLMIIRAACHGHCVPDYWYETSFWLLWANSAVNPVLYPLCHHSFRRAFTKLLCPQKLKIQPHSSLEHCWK

Broadly, the Ki is a measure of affinity in units of concentration, obtained from inhibition or displacement. High values mean lower affinity, low ones higher affinity. The compound `O=C(O)C(F)(F)F.c1cc2nc(N3CCN(C4CC4)CC3)sc2cc1CN1CCCC1` [Example 17, 2-(4-Cyclopropylpiperazin-1-yl)-6-(pyrrolidin-1-ylmethyl)benzothiazole, trifluoroacetate] displayed a Ki on human H3 receptor of 1.8 nM. In addition, in assay [1], the “Open cage schedule-fed rat model, food intake at 3 h” value is recorded as 81.2 % of vehicle.

As for `c1cc2nc(N3CCN(C4CC4)CC3)sc2cc1CNC1CC1` [Example 27, Cyclopropyl-[2-(4-cyclopropylpiperazin-1-yl)benzothiazol-6-ylmethyl]-amine, trifluoroacetate], the Ki at human H3 receptor was determined as 0.9 nM. Moreover, the “Open cage schedule-fed rat model, food intake at 3 h” value in assay [1] is listed as 82.9 % of vehicle.
